Assay results reported in patent publication US8791139B2, “Anthranilic diamide derivatives” (Bayer Cropscience AG, priority 2010, dated 2014).
Like-named read-outs stand apart in the source and are kept apart here.

Key:
[1] = system: larvae of the mustard beetle (Phaedon cochleariae); test: Phaedon test (PHAECO spray treatment); settings: 168 h; for pest or weed control at 100 g/ha / pest or weed control at 500 g/ha: read-out: activity (beetle larvae killed); for inhibition at 100 g/ha: read-out: % Activity, PHAECO
[2] = system: caterpillars of the armyworm (Spodoptera frugiperda); test: Spodoptera frugiperda test (SPODFR spray treatment); format: in vivo; settings: 168 h; for inhibition at 100 g/ha: 7 d, comparison with prior art
Protocol: After 7 days, the effect in % is determined.

[3] = logP by HPLC on reversed-phase columns (C18), EEC Directive 79/831 Annex V.A8; format: physicochemical
Protocol: The logP values reported in the table above and in the Preparation Examples were determined in accordance with EEC Directive 79/831 Annex V.A8 by HPLC (High Performance Liquid Chromatography) on reversed-phase columns (C18), with the following methods:
The LC-MS determination in the acidic range is carried out at pH 2.7 using the mobile phases 0.1% aqueous formic acid and acetonitrile (contains 0.1% formic acid), linear gradient from 10% acetonitrile to 95% acetonitrile
Calibration was carried out using unbranched alkan-2-ones (having from 3 to 16 carbon atoms) with known logP values (the logP values were determined by the retention times using linear interpolation between two successive alkanones).

[4] = system: Lucilia cuprina larvae; test: Lucilia cuprina test (LUCICU); format: in vivo; settings: application rate 100 ppm, after 48 h
From the text: (§1) Solvent: dimethyl sulphoxide
Vessels containing horse meat treated with the active compound preparation of the desired concentration are populated with about 20 Lucilia cuprina larvae.

[5] = system: green peach aphid (Myzus persicae); test: Myzus test (MYZUPE spray treatment); format: in vivo; settings: application rate 100 g/ha, after 6 days, Chinese cabbage leaf discs
[6] = system: Boophilus microplus; test: Boophilus microplus test (BOOPMI injection); format: in vivo; settings: application rate 20 μg/animal, injection into abdomen, after 7 days
Protocol: as §1
The active compound solution is injected into the abdomen (Boophilus microplus), and the animals are transferred into dishes and stored in a climate-controlled room.
The activity is assessed by […] of fertile eggs. 100% means that none of the ticks has laid any fertile eggs.

[7] = read-out: activity (caterpillars killed)
[8] = reversed-phase HPLC column (C18), pH 2.7, HPLC reversed-phase C18, acidic range pH 2.7, 0.1% aqueous formic acid/acetonitrile, table of compounds of formula (I), read-out: log P
[9] = application rate 100 g/ha, after 7 days, read-out: activity (caterpillars killed)

Structure (SMILES)	pest or weed control at 100 g/ha [1] [%]	pest or weed control at 100 g/ha [2, 7] [%]	chromatographic logP ([3]; pH 2.7, log P)	also measured
CNC(=O)c1cc(Cl)cc(C)c1NC(=O)c1cc(C2=NOC(c3cc(Cl)cc(Cl)c3)(C(F)(F)F)C2)nn1-c1ncccc1Cl (stereo not shown) [Example 1]	83	100		
Cc1cc(Br)cc(C(=O)NC(C)C)c1NC(=O)c1cc(C(=O)Nc2ccc(C(F)(F)F)cc2)nn1-c1ncccc1Cl [Example 3]	100		4.02	
CNC(=O)c1cc(Cl)cc(C)c1NC(=O)c1cc(C#Cc2ccc(OC(F)(F)F)cc2)nn1-c1ncccc1Cl [Example 10]	100	100	4.29	
Cc1cc(Cl)cc(C(=O)NC(C)C)c1NC(=O)c1cc(C#Cc2ccc(OC(F)(F)F)cc2)nn1-c1ncccc1Cl [Example 11]	100	100	4.79	efficacy (kill of larvae) [4]: 90%
Cc1cc(C#N)cc(C(N)=O)c1NC(=O)c1cc(C#Cc2ccc(OC(F)(F)F)cc2)nn1-c1ncccc1Cl [Example 12]		100	3.58	efficacy (kill of larvae) [4]: 90%
CNC(=O)c1cc(C#N)cc(C)c1NC(=O)c1cc(C#Cc2ccc(OC(F)(F)F)cc2)nn1-c1ncccc1Cl [Example 13]	100		3.88	
Cc1cc(C#N)cc(C(=O)NC(C)(C)C)c1NC(=O)c1cc(C(=O)c2nc(C(F)(F)F)cs2)nn1-c1ncccc1Cl [Example 14]	100	100	3.57	
CNC(=O)c1cc(C#N)cc(C)c1NC(=O)c1cc(C(=O)Cn2nnc(C(F)(F)F)n2)nn1-c1ncccc1Cl [Example 15]	100		2.89	activity (aphids killed) [5]: 90%; efficacy (kill of larvae) [4]: 100%; efficacy (no fertile eggs laid) [6]: 100%; pest or weed control at 20 g/ha [2, 7]: 100%
CCOc1ccc(C(=O)c2cc(C(=O)Nc3c(C)cc(C#N)cc3C(=O)NC)n(-c3ncccc3Cl)n2)cn1 [Example 17]	100	100	2.99	
CNC(=O)c1cc(C#N)cc(C)c1NC(=O)c1cc(C(=O)c2ccc(C(F)(F)F)nc2)nn1-c1ncccc1Cl [Example 18]	100		3.01	inhibition at 100 g/ha [1]: 100%; inhibition at 100 g/ha [2]: 100%
Cc1cc(C#N)cc(C(=O)NC(C)(C)C)c1NC(=O)c1cc(C(=O)c2ccc(C(F)(F)F)nc2)nn1-c1ncccc1Cl [Example 19]			3.85	pest or weed control at 500 g/ha [1]: 100%; pest or weed control at 500 g/ha [2, 7]: 100%
CNC(=O)c1cc(C#N)cc(C)c1NC(=O)c1cc(C(=O)c2nc(C(F)(F)F)cs2)nn1-c1ncccc1Cl [Example 20]			2.77	pest or weed control at 500 g/ha [1]: 100%; pest or weed control at 500 g/ha [2, 7]: 100%
Cc1cc(C#N)cc(C(=O)NC(C)C)c1NC(=O)c1cc(C(=O)c2nc(C(F)(F)F)cs2)nn1-c1ncccc1Cl [Example 21]	100	100	3.24	activity (aphids killed) [5]: 90%; efficacy (kill of larvae) [4]: 100%
CNC(=O)c1cc(Cl)cc(C)c1NC(=O)c1cc(N2CCN(c3cc(C(F)(F)F)cc(C(F)(F)F)c3)C2=O)nn1-c1ncccc1Cl [Example 22]	100			chromatographic logP [3, 8]: 4.43; efficacy (kill of larvae) [4]: 100%; efficacy (no fertile eggs laid) [6]: 100%; pest or weed control at 100 g/ha [2, 9]: 100%
CNC(=O)c1cc(Cl)cc(C)c1NC(=O)c1cc(CN(C=O)c2ccccc2NS(C)(=O)=O)nn1-c1ncccc1Cl [Example 32]			2.09	activity (aphids killed) [5]: 80%
CNC(=O)c1cc(Cl)cc(C)c1NC(=O)c1cc(CN(C=O)c2ccc(Cl)cc2NS(C)(=O)=O)nn1-c1ncccc1Cl [Example 33]		100	2.49	activity (aphids killed) [5]: 90%
Cc1cc(Cl)cc(C(=O)NC2CC2)c1NC(=O)c1cc(CN(Cc2cc(C(F)(F)F)cc(C(F)(F)F)c2)S(C)(=O)=O)nn1-c1ncccc1Cl [Example 59]				chromatographic logP [3, 8]: 4.05; pest or weed control at 100 g/ha [2, 9]: 100%
CNC(=O)c1cc(C#N)cc(C)c1NC(=O)c1cc(C(O)Cn2nnc(C(F)(F)F)n2)nn1-c1ncccc1Cl (stereo not shown) [Example 63]		100	2.01	activity (aphids killed) [5]: 80%; log P ([3]; pH 2.7): 2.27; efficacy (no fertile eggs laid) [6]: 100%
CNC(=O)c1cc(C#N)cc(C)c1NC(=O)c1cc(/C=C/n2nnc(C(F)(F)F)n2)nn1-c1ncccc1Cl [Example 64]	100	100	3.17	
Cc1cc(C#N)cc(C(=O)NC(C)C)c1NC(=O)c1cc(Nc2ccc(C(F)(F)F)cn2)nn1-c1ncccc1Cl [Example 67]	100	100	3.31	
CNC(=O)c1cc(C#N)cc(C)c1NC(=O)c1cc(CN2CC(C(F)(F)F)C(c3ccc(Cl)cc3)=N2)nn1-c1ncccc1Cl (stereo not shown) [Example 68]	100	100	3.66	
CNC(=O)c1cc(C#N)cc(C)c1NC(=O)c1cc(Nc2cc(C(F)(F)F)c(C(F)(F)F)cn2)nn1-c1ncccc1Cl [Example 71]	100	100	3.5	
Cc1cc(C#N)cc(C(=O)NC(C)C)c1NC(=O)c1cc(Nc2cc(C(F)(F)F)cc(C(F)(F)F)c2)nn1-c1ncccc1Cl [Example 73]	100	100		
Cc1cc(C#N)cc(C(=O)NC(C)C)c1NC(=O)c1cc(Nc2ccc(C(F)(F)F)cc2)nn1-c1ncccc1Cl [Example 74]	100	100	3.7	
Cc1cc(C#N)cc(C(=O)NC(C)C)c1NC(=O)c1cc(Oc2ccc(C(F)(F)F)cn2)nn1-c1ncccc1Cl [Example 76]	100	100	3.4	
CNC(=O)c1cc(C#N)cc(C)c1NC(=O)c1cc(Oc2ccc(C(F)(F)F)cn2)nn1-c1ncccc1Cl [Example 77]	100	100	2.89	
CNC(=O)c1cc(C#N)cc(C)c1NC(=O)c1cc(CSc2ccc(C(F)(F)F)cn2)nn1-c1ncccc1Cl [No. 1 known WO 2007/144100, reference compound]				inhibition at 100 g/ha [1]: 0%; inhibition at 100 g/ha [2]: 0%
